This note sets out measurements from PubChem BioAssay (NCI).

Test systems include HT29 colon; SN12C renal; UO-31 renal; SK-MEL-5 melanoma; NCI-H226 lung; KM12 colon; SNB-75 CNS; HCT-15 colon; HL-60(TB) leukemia; EKVX NSCLC; HS 578T breast; PC-3 prostate.
Assay in all cases: growth of human tumour cells (NCI), 48 h

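How tested: cells in 96-well plates exposed to compound for 48 hours at five concentrations. TGI: total growth inhibition.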

Regarding `CC(C)Cc1ccc(C(C)C(=O)N2CCN(/C=C/c3ccccc3)CC2)cc1` (stereo not given), the TGI in the assay with HT29 colon came to 28 µM; with SN12C renal, 30.8 µM; in the assay on UO-31 renal, 24 µM; with SK-MEL-5 melanoma, 26 µM; in the assay with NCI-H226 lung it was 18.1 µM; with KM12 colon it was 31.7 µM. Also, the TGI came out at 29.1 µM in the assay with SNB-75 CNS, 27.5 µM in the assay with HCT-15 colon, 18.7 µM in the assay with HL-60(TB) leukemia and 35 µM with EKVX NSCLC.
As to `O=C(O)CCCc1nc2c(n1Cc1ccccc1)C(=O)c1ccccc1C2=O`, the TGI was greater than 100 µM with SN12C renal; greater than 100 µM in the assay on UO-31 renal; greater than 100 µM in the assay with KM12 colon; greater than 100 µM with HCT-15 colon; 88.3 µM with HL-60(TB) leukemia; greater than 100 µM with HS 578T breast. The same compound came in with a TGI in the assay with EKVX NSCLC greater than 100 µM.
For `CCN(CC)CCNc1ccc2nnn3c4ccc(OCCN(CC)CC)cc4c(=O)c1c23`, the TGI was 54.2 µM in the assay with HT29 colon; greater than 100 µM in the assay with SN12C renal; greater than 100 µM in the assay with UO-31 renal; 84.5 µM in the assay on KM12 colon; greater than 100 µM in the assay on HCT-15 colon; greater than 100 µM in the assay with HS 578T breast. The compound further displayed a TGI in the assay on EKVX NSCLC greater than 100 µM.
Regarding `Nc1ccc2c(c1)C(=O)N1CCC[C@H]1C(=O)N2`, the TGI in the assay with HT29 colon, in the assay with SN12C renal, with UO-31 renal, in the assay on SK-MEL-5 melanoma, with PC-3 prostate and in the assay on NCI-H226 lung was greater than 100 µM each time. Further, the TGI in the assay with KM12 colon, in the assay on SNB-75 CNS, in the assay on HCT-15 colon and in the assay on EKVX NSCLC was greater than 100 µM in each case.
On to `BrC1=C(Br)C2(SCCS2)[C@H]2C[C@@H]1c1ccccc12`, for which the TGI was greater than 100 µM in the assay on HT29 colon; greater than 100 µM in the assay on SN12C renal; greater than 62.3 µM in the assay with UO-31 renal; greater than 41.6 µM with SK-MEL-5 melanoma; greater than 100 µM in the assay with PC-3 prostate; greater than 100 µM in the assay with NCI-H226 lung. Moreover, the TGI with KM12 colon was greater than 100 µM; in the assay with SNB-75 CNS it was greater than 85.9 µM; in the assay on HCT-15 colon, greater than 100 µM; in the assay on HL-60(TB) leukemia it was greater than 100 µM; in the assay on EKVX NSCLC, greater than 100 µM.
As for `COc1cc2c(cc1OC)C(CC1=C(c3ccccc3)CN3CCc4cc(OC)c(OC)cc4C3C1)NCC2` (stereo not given), the TGI is 26.3 µM in the assay on HT29 colon; 37 µM in the assay on SN12C renal; 23.4 µM with UO-31 renal; 31.3 µM with SK-MEL-5 melanoma; 37.2 µM in the assay on NCI-H226 lung; 39.1 µM in the assay with KM12 colon. For the same compound, the TGI with SNB-75 CNS was found to be 28 µM; with HCT-15 colon it was 36.1 µM; in the assay with HL-60(TB) leukemia, 28.6 µM; with EKVX NSCLC, 38.8 µM.
Turning to `Cc1ccc(S(=O)(=O)c2[nH]cc(/C(=C\C3CCCCC3)[N+](=O)[O-])c2C2CCCCC2)cc1`, the TGI in the assay with HT29 colon was greater than 100 µM; in the assay with SN12C renal, 0.49 µM; in the assay with UO-31 renal it was 1.32 µM; in the assay on SK-MEL-5 melanoma, 1.21 µM; in the assay with PC-3 prostate, 2.53 µM; in the assay with NCI-H226 lung, 9.9 µM. Further, the TGI with KM12 colon worked out at 4.1 µM; in the assay with SNB-75 CNS, 5.81 µM; with HCT-15 colon, 0.46 µM; in the assay with EKVX NSCLC it was 1.4 µM.
As to `CCCC(=O)OCC1OC(n2ccc(N)nc2=O)C(OC(=O)CCC)C1OC(=O)CCC` (stereo not given), the TGI with HT29 colon, in the assay with SN12C renal, in the assay with UO-31 renal, in the assay with SK-MEL-5 melanoma, with NCI-H226 lung and in the assay on KM12 colon was greater than 100 µM in each case. For the same compound, the TGI in the assay with SNB-75 CNS is greater than 100 µM; with HCT-15 colon, greater than 100 µM; in the assay with HL-60(TB) leukemia it was 25.1 µM; in the assay with EKVX NSCLC, 16.8 µM.
`COc1cc(C2C3C=CC=C4CC=CC(=C43)C3CCC(=O)N32)cc(OC)c1OC` (stereo not given): the TGI in the assay with HT29 colon was greater than 100 µM; with SN12C renal, greater than 100 µM; in the assay on UO-31 renal, greater than 100 µM; in the assay with PC-3 prostate, greater than 100 µM; in the assay on NCI-H226 lung, 36.3 µM; in the assay with KM12 colon it was greater than 100 µM. For the same compound, the TGI with SNB-75 CNS, in the assay with HCT-15 colon, with HL-60(TB) leukemia and in the assay on EKVX NSCLC was greater than 100 µM each time.
Consider `NC(N)=NS(=O)(=O)c1ccc(NNc2c3ccccc3nc3c(C(=O)Nc4ccc(S(=O)(=O)Nc5ncccn5)cc4)cccc23)cc1`, for which the TGI was 54.6 µM with HT29 colon; greater than 100 µM with SN12C renal; 83.7 µM with UO-31 renal; greater than 100 µM in the assay with SK-MEL-5 melanoma; greater than 100 µM with PC-3 prostate; greater than 100 µM with KM12 colon. Also, the TGI in the assay on SNB-75 CNS is greater than 100 µM; in the assay with HCT-15 colon, greater than 100 µM; with HL-60(TB) leukemia it was greater than 100 µM; in the assay on EKVX NSCLC, 96.2 µM.
Take `COc1ccc(/C=C2\CCNC2=O)cc1`: the TGI with HT29 colon, in the assay with SN12C renal, with UO-31 renal, with SK-MEL-5 melanoma, in the assay on NCI-H226 lung and in the assay on KM12 colon was greater than 100 µM in each case. For the same compound, the TGI in the assay with SNB-75 CNS is greater than 79.5 µM; in the assay on HCT-15 colon, greater than 100 µM; in the assay on HL-60(TB) leukemia, greater than 100 µM; in the assay on EKVX NSCLC it was greater than 80.9 µM.
